Test results reported in patent publication US20240018135A1, “COMPOUND HAVING INHIBITORY ACTIVITY AGAINST O-GLUSACASE AND USE THEREOF” (MEDIFRON DBT INC., priority 2020, published 2024).
pIC50: −log10 of the molar value.

How the values were obtained:
[1] = target: Human OGA (recombinant hOGA protein) (Homo sapiens (Human), UniProt O60502); assay: Human OGA enzyme activity assay (fluorescence, 4-Methylumbelliferyl N-acetyl-β-D-glucosaminide substrate); format: biochemical; conditions: for pIC50: Table 1; for % of inhibition: Table 1, test concentration not given
Human OGA (recombinant hOGA protein), sequence (O60502 whole entry): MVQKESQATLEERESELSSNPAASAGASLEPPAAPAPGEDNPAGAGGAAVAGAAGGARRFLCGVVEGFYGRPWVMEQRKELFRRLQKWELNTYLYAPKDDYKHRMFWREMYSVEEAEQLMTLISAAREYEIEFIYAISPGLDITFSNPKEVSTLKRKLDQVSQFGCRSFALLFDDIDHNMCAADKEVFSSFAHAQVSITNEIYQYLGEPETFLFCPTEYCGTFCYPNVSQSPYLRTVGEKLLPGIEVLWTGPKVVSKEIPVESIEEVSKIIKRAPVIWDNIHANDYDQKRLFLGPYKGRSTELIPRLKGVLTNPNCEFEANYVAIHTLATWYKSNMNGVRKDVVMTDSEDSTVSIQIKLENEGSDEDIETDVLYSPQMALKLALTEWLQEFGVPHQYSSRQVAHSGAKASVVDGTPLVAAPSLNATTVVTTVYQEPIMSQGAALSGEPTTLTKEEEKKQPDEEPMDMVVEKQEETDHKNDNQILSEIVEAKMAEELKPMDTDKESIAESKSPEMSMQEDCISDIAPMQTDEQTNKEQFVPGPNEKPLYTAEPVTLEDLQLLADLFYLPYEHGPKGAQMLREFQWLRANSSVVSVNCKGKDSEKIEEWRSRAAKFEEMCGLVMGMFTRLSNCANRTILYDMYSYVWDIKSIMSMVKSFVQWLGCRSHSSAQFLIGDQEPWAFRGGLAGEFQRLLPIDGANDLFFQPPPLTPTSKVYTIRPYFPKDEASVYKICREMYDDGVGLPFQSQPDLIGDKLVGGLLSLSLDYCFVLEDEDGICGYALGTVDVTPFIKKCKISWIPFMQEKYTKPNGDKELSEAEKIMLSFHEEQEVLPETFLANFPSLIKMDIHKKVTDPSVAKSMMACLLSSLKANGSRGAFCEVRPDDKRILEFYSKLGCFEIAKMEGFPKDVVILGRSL

Row | pIC50 [1] | % of inhibition [1] [%] | melting point [°C] | Compound
1 | – | 34.6 | 185 to 194 | CC(=O)Nc1ncc(CN2CCN(CC(=O)Oc3ccccc3)CC2)s1 [Compound A-2, phenyl 2-(4-((2-acetamidothiazol-5-yl)methyl)piperazin-1-yl)acetate]
2 | – | 70.7 | 213 to 217 | CC(=O)Nc1ncc(CN2CCN(CC(=O)Nc3ccc(C)cc3)CC2)s1 [Compound A-3, 2-(4-((2-acetamidothiazol-5-yl)methyl)piperazin-1-yl)-N-(p-tolyl)acetamide]
3 | – | 79.2 | 173 to 176 | CC(=O)Nc1ncc(CN2CCN(CC(=O)Nc3ccc(C(C)C)cc3)CC2)s1 [Compound A-6, 2-(4-((2-acetamidothiazol-5-yl)methyl)piperazin-1-yl)-N-(4-isopropylphenyl) acetamide]
4 | 6.08 | 84.2 | 217 to 220 | COc1ccc(NC(=O)CN2CCN(Cc3cnc(NC(C)=O)s3)CC2)cc1 [Compound A-7, 2-(4-((2-acetamidothiazol-5-yl)methyl)piperazin-1-yl)-N-(4-methoxyphenyl)acetamide]
5 | 6.20 | 85.4 | 177 to 179 | COc1ccc(CCNC(=O)CN2CCN(Cc3cnc(NC(C)=O)s3)CC2)cc1 [Compound A-8, 2-(4-((2-acetamidothiazol-5-yl)methyl)piperazin-1-yl)-N-(4-methoxyphenethyl) acetamide]
6 | – | 59.9 | 210 to 212 | COc1cccc(NC(=O)CN2CCN(Cc3cnc(NC(C)=O)s3)CC2)c1 [Compound A-9, 2-(4-((2-acetamidothiazol-5 yl)methyl)piperazin-1-yl)-N-(3-methoxyphenyl) acetamide.]
7 | 5.70 | 81.6 | 232 to 236 | CC(=O)Nc1ncc(CN2CCN(CC(=O)Nc3ccc(Cl)cc3)CC2)s1 [Compound A-12]
8 | 5.77 | 85.2 | 212 to 213 | CC(=O)Nc1ncc(CN2CCN(CC(=O)Nc3ccc(Cl)cc3Br)CC2)s1 [Compound A-13, 2-(4-((2-acetamidothiazol-5-yl)methyl)piperazin-1-yl)-N-(2-bromo-4-chlorophenyl)acetamide]
9 | – | 38.6 | 224 to 228 | CC(=O)Nc1ncc(CN2CCN(CC(=O)Nc3cccc(C)n3)CC2)s1 [Compound A-16]
10 | – | 64.3 | 224 to 230 | CC(=O)Nc1ncc(CN2CCN(CC(=O)Nc3ccc(C)cn3)CC2)s1 [Compound A-17, 2-(4-((2-acetamidothiazol-5-yl)methyl)piperazin-1-yl)-N-(5-methylpyridin-2-yl) acetamide]
11 | – | 59.1 | 237 to 240 | CC(=O)Nc1ncc(CN2CCN(CC(=O)Nc3nccs3)CC2)s1 [Compound A-21, 2-(4-((2-acetamidothiazol-5-yl)methyl)piperazin-1-yl)-N-(thiazol-2-yl)acetamide]
12 | – | 71.3 | 257 to 258 | CC(=O)Nc1ncc(CN2CCN(CC(=O)Nc3cccc4ccccc34)CC2)s1 [Compound A-24, 2-(4-((2-acetamidothiazol-5-yl)methyl)piperazin-1-yl)-N-(naphthalen-1-yl)acetamide]
13 | – | 62.6 | 233 to 236 | CC(=O)Nc1ncc(CN2CCN(CC(=O)Nc3nc4ccccc4[nH]3)CC2)s1 [Compound A-26, 2-(4-((2-acetamidothiazol-5-yl)methyl)piperazin-1-yl)-N-(1H-benzo[d]imidazol-2-yl)acetamide]
14 | – | 46.2 | 248 to 249 | CC(=O)Nc1ncc(CN2CCN(CC(=O)Nc3nc4ccccc4s3)CC2)s1 [Compound A-27, 2-(4-((2-acetamidothiazol-5-yl)methyl)piperazin-1 yl)-N-(benzo[d]thiazol-2-yl)acetamide]
15 | – | 19.2 | – | COc1ccc2nc(NC(=O)CN3CCN(Cc4cnc(NC(C)=O)s4)CC3)sc2c1 [Compound A-28, 2-(4-((2-acetamidothiazol-5-yl)methyl)piperazin-1-yl)-N-(6-methoxybenzo[d]thiazol-2-yl)acetamide]
16 | – | 44.6 | 244 to 246 | CCOc1ccc2nc(NC(=O)CN3CCN(Cc4cnc(NC(C)=O)s4)CC3)sc2c1 [Compound A-29, 2-(4-((2-acetamidothiazol-5 yl)methyl)piperazin-1 yl)-N-(6-ethoxybenzo[d]thiazol-2-yl)acetamide]
17 | – | 42.6 | 255 to 257 | CC(=O)Nc1ncc(CN2CCN(CC(=O)Nc3nc4c(Cl)cccc4s3)CC2)s1 [Compound A-30, 2-(4-((2-acetamidothiazol-5-yl)methyl)piperazin-1-yl)-N-(4-chlorobenzo[d]thiazol-2-yl)acetamide]
18 | – | 50.4 | 208 to 210 | CC(=O)Nc1ncc(CN2CCN(CC(=O)N(C)c3ccccc3)CC2)s1 [Compound A-31, 2-(4-((2-acetamidothiazol-5-yl)methyl)piperazin-1-yl)-N-methyl-N-phenylacetamide]
19 | 6.08 | 93.3 | – | CC(=O)Nc1ncc(CN2CCC(C(=O)NC(C)c3ccc(C)cc3)CC2)s1 (stereo not shown) [Compound B-11, 1-((2-acetamidothiazol-5-yl)methyl)-N-(1-(p-tolyl)ethyl)piperidine-4-carboxamide]
20 | 6.60 | 96.8 | – | CC(=O)Nc1ncc(CN2CCC(C(=O)NC(C)c3ccc4ccccc4c3)CC2)s1 (stereo not shown) [Compound B-12, 1-((2-acetamidothiazol-5 yl)methyl)-N-(1-(naphthalen-2-yl)ethyl)piperidine-4-carboxamide]

Second part, the compound before the results:

Row | Compound | pIC50 [1] | % of inhibition [1] [%] | melting point [°C]
21 | 1-((2-acetamidothiazol-5-yl)methyl)-N-(4-fluorophenyl)piperidine-4-carboxamide [Compound B-14] | 6.52 | 89.0 | –
22 | 1-((2-acetamidothiazol-5-yl)methyl)-N-(p-tolyl)piperidine-4-carboxamide [Compound B-15] | 6.80 | 91.2 | –
23 | CC(=O)Nc1ncc(CN2CCN(CC(=O)Nc3ccccc3)CC2)s1 [Compound A-1, 2-(4-((2-acetamidothiazol-5-yl)methyl)piperazin-1-yl)-N-phenylacetamide] | 5.59 | 78.3 | –
24 | CC(=O)Nc1ncc(CN2CCN(CC(=O)Nc3ccccc3C)CC2)s1 [Compound A-4, 2-(4-((2-acetamidothiazol-5-yl)methyl)piperazin-1-yl)-N-(o-tolyl)acetamide] | – | 47.6 | 194 to 196
25 | CC(=O)Nc1ncc(CN2CCN(CC(=O)Nc3cccc(C)c3)CC2)s1 [Compound A-5, 2-(4-((2-acetamidothiazol-5-yl)methyl)piperazin-1-yl)-N-(m-tolyl)acetamide] | – | 62.4 | 202 to 204
26 | COc1ccc(NC(=O)CN2CCN(Cc3cnc(NC(C)=O)s3)CC2)cc1OC [Compound A-10, 2-(4-((2-acetamidothiazol-5-yl)methyl)piperazin-1-yl)-N-(3,4-dimethoxyphenyl)acetamide] | – | 62.4 | 182 to 184
27 | CC(=O)Nc1ncc(CN2CCN(CC(=O)Nc3ccc(F)cc3)CC2)s1 [Compound A-11, 2-(4-((2-acetamidothiazol-5-yl)methyl)piperazin-1-yl)-N-(4-fluorophenyl)acetamide] | 5.58 | 85.7 | 212 to 215
28 | CC(=O)Nc1ccc(NC(=O)CN2CCN(Cc3cnc(NC(C)=O)s3)CC2)cc1 [Compound A-14, N-(4-acetamidophenyl)-2-(4-((2-acetamidothiazol-5-yl)methyl)piperazin-1-yl)acetamide] | 5.90 | 80.0 | 234 to 237
29 | CC(=O)Nc1ncc(CN2CCN(CC(=O)Nc3ccccn3)CC2)s1 [Compound A-15, 2-(4-((2-acetamidothiazol-5-yl)methyl)piperazin-1-yl) N-(pyridin-2-yl)acetamide] | – | 90.9 | –
30 | CC(=O)Nc1ncc(CN2CCN(CC(=O)Nc3cc(C)ccn3)CC2)s1 [Compound A-18, 2-(4-((2-acetamidothiazol-5-yl)methyl)piperazin-1-yl)-N-(4-methylpyridin-2-yl) acetamide] | – | 48.8 | 210 to 211
31 | CC(=O)Nc1ncc(CN2CCN(CC(=O)Nc3cnccn3)CC2)s1 [Compound A-19, 2-(4-((2-acetamidothiazol-5-yl)methyl)piperazin-1-yl)-N-(pyrazin-2-yl)acetamide] | – | 74.7 | 224 to 226
32 | CC(=O)Nc1ncc(CN2CCN(CC(=O)NC3CCCCC3)CC2)s1 [Compound A-20, 2-(4-((2-acetamidothiazol-5-yl)methyl)piperazin-1-yl)-N-cyclohexylacetamide] | 5.85 | 89.0 | 198 to 200
33 | CC(=O)Nc1ncc(CN2CCN(CC(=O)Nc3ccc4ncccc4c3)CC2)s1 [Compound A-22, 2-(4-((2-acetamidothiazol-5-yl)methyl)piperazin-1-yl)-N-(quinolin-6-yl)acetamide] | 6.05 | 97.5 | 248 to 250
34 | CC(=O)Nc1ncc(CN2CCN(CC(=O)Nc3ccc4nccnc4c3)CC2)s1 [Compound A-23, 2-(4-((2-acetamidothiazol-5-yl)methyl)piperazin-1 yl)-N-(quinoxalin-6-yl)acetamide] | – | 70.1 | 234 to 235
35 | CC(=O)Nc1ncc(CN2CCN(CC(=O)Nc3ccc4[nH]ccc4c3)CC2)s1 [Compound A-25, 2-(4-((2-acetamidothiazol-5-yl)methyl)piperazin-1-yl)-N-(1H-indol-5-yl)acetamide] | – | 59.2 | 216 to 219
36 | CC(=O)Nc1ncc(CN2CCN(CC(=O)Nc3ccccc3)CC2C)s1 (stereo not shown) [Compound A-32, 2-(4-((2-acetamidothiazol-5 yl)methyl)-3-methylpiperazin-1-yl)-N-phenylacetamide] | 6.62 | 97.0 | 174 to 176
